Assay results from patent US11357786B2, “Synthetic disugar hydrocarbons as natural analogs to control microbial behaviors” (Syracuse University, priority 2014, dated 2022).

Columns and labels:
PAO1 biofilm = assay: Crystal violet based static biofilm inhibition assay, DSHs in LB media (Examples 2 and 4); type: cell-based, Pseudomonas aeruginosa; details: for Anti-biofilm activity (biofilm inhibition): concentration not given; for Inhibition of PAO1 biofilm in presence of pili peptide PAO(128-144)ox: agent 85 μM + pili peptide 85 μM; for Inhibition of PAO1 biofilm in presence of scrambled pili peptide: agent 85 μM + scrambled pili peptide 85 μM
Summary of the method: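 PAO1 subculture (OD600 ~0.1) was grown statically in LB at 37° C for 24 h with or without DSHs (screened at 160 μM). Surface-attached biofilm was then stained with 0.1% crystal violet, solubilised in 30% AcOH and read at 600 nm. Values are the mean of 4 wells.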

24 h old PAO1 biofilm = assay: Crystal violet biofilm dispersion assay, maltose derivatives (Example 1); type: cell-based, Pseudomonas aeruginosa; details: concentration not given
Experimental: Chemical dispersion of already formed biofilm is often more relevant to medical application, and more challenging than biofilm inhibition assays, for which the agents are introduced at the onset of an experiment. We screened the ability of maltose derivatives at 110 μM to disperse 24 h old biofilm.
PAO1 was allowed to grow for 24 h at 37° C. After 24 h, bacterial culture was pipetted out and replaced with 200 μL of 110 μM maltose hydrocarbons and sterile water (control). After 1 h treatment with maltose hydrocarbons, biofilm was fixed and quantified using crystal violet dye as described above. The amount of dispersed biofilm was determined via comparison of the amount of biofilm at 24 h in the presence of maltose hydrocarbons versus the amount of biofilm in the “no compound” positive control at 24 h (wells with water treatment).
Predetermined amounts maltose derivatives stock solution was added to the 200 μL bacterial culture in 96 well plate so that the final concentration of the agent reaches the desired values of 1, 5, 10, 20, 40, 85, 113, 140 μM. Biofilm inhibition and dispersion assay was carried as described previously.

| Compound | IC50 (PAO1 biofilm; Example 2, FIG. 18) | IC50 (PAO1 biofilm; Example 4, FIG. 30) | Anti-biofilm activity (biofilm inhibition) (PAO1 biofilm) | Anti-biofilm activity (dispersion) (24 h old PAO1 biofilm) | Inhibition of PAO1 biofilm (PAO1 biofilm; 85 μM, agent alone) | Inhibition of PAO1 biofilm in presence of pili peptide PAO(128-144)ox (PAO1 biofilm) | Inhibition of PAO1 biofilm in presence of pili peptide PAO(128-144)ox (PAO1 biofilm; listed as 13: SFαC) | Inhibition of PAO1 biofilm in presence of scrambled pili peptide (PAO1 biofilm) | Inhibition of PAO1 biofilm in presence of scrambled pili peptide (PAO1 biofilm; listed as 13: SFαC) |
| --- | --- | --- | --- | --- | --- | --- | --- | --- | --- |
| CC(C)CCCC(C)CCCC(C)CCO[C@@H]1O[C@H](CO)[C@@H](O[C@@H]2O[C@H](CO)[C@@H](O)[C@H](O)[C@H]2O)[C@H](O)[C@H]1O (stereo partly drawn) [SFβC (12), saturated famesyl-β-cellobioside] | 4.9 µM | ~9.9 µM | potent PAO1 biofilm inhibitors |  |  |  |  |  |  |
| CCCCCCCCCCCCOCCOCCOCCOCCO [C12EG4OH, tetra (ethylene glycol) monododecyl ether, reference compound] |  |  | did not incur any bioactivity | did not show any anti-biofilm activities |  |  |  |  |  |
| CC(C)CCCC(C)CCCC(C)CCO[C@@H]1O[C@H](CO)[C@@H](O[C@H]2O[C@H](CO)[C@@H](O)[C@H](O)[C@H]2O)[C@H](O)[C@H]1O (stereo partly drawn) [SFβM (14), saturated farnesyl-β-maltoside] | ~97.2 µM | ~102 µM | potent PAO1 biofilm inhibitors |  |  |  |  |  |  |
| CCCCCCCCCCCCOS(=O)(=O)[O-].[Na+] [SDS, sodium dodecyl sulfate, reference compound] |  |  | did not incur any bioactivity | did not show any anti-biofilm activities |  |  |  |  |  |
| CC(C)CCCC(C)CCCC(C)CCO[C@H]1O[C@H](CO)[C@@H](O[C@@H]2O[C@H](CO)[C@@H](O)[C@H](O)[C@H]2O)[C@H](O)[C@H]1O (stereo partly drawn) [SFαC (13), saturated farnesyl-α-cellobioside] | ~32.3 µM | ~32 µM | potent PAO1 biofilm inhibitors |  | about 70% | 30% | exhibited no inhibition of PA biofilm | 65% | did not compromise the efficacy of the agent |
